Positions of bridges follow the written chain, without caps; N, C: chain ends. Non-standard residues stand in square brackets, D forms with d. Residues, ends and D or L forms follow the SMILES beside them. Trp(1-Me) = Cn1cc(C[C@H](N)C(=O)O)c2ccccc21; 2Nal = N[C@@H](Cc1ccc2ccccc2c1)C(=O)O
System: classical complement pathway
Assay: In vitro haemolysis assay (inhibition of classical complement pathway)
Type: cell-based, human
Conditions: Table 3; human serum, sensitized sheep red blood cells; read-out: IC50[nM], in vitro analysis of inhibition of hemolysis
Protocol: Method The in vitro effect of test compounds was assessed by measuring their inhibitory effect of the classical complement pathway in a haemolysis assay. Briefly, test compounds and reference compounds were dissolved in DMSO and diluted in Tris/Casein Assay Buffer (10 mM Tris, 145 mM NaCl, 0.5 mM MgCl2, 0.15 mM CaCl2, and 0.1% W/V Casein, adjusted to pH 7.4) as 9-point serial dilutions in a 96 well plate. Sensitized sheep red blood cells (RBC) coated with rabbit anti-sheep erythrocyte antiserum (Complement Technology, Inc., TX, USA) were washed in Tris/Casein Assay Buffer. 50 μL from each well of diluted compound was added to a 96-well plate containing 50 μL diluted human serum (Complement Technology, Inc., TX, USA) and incubated for 15 minutes at room temperature. The serum dilution factor was optimized for every serum batch to obtain 70-90% of maximal haemolysis using the protocol. Then 50 μL sensitized sheep red blood cells were added to all wells ([…] per well). After 30 minutes of incubation at 37° C. with gentle agitation, the reaction was stopped by addition of 50 μL Tris STOP Buffer per well (10 mM EDTA, 10 mM Tris, 145 mM NaCl adjusted to pH 7.4). The RBCs were then removed by centrifugation and the resulting supernatant measured for hemolysis by absorbance at 405 nm. The response was normalized relative to a positive and negative control (vehicle) to calculate the IC50 from the concentration response curve using the 4-parameter logistic (4PL) nonlinear model for curve fitting.

Compound	IC50 [nM]
CC[C@H](C)[C@H](NC(=O)[C@H](C)NC(=O)[C@H](CO)NC(=O)CNC(=O)[C@H](CCC(=O)O)NC(C)=O)C(=O)N[C@H]1CSSC[C@@H](C(=O)N[C@H](C(N)=O)[C@@H](C)O)NC(=O)[C@H](CCCNC(=N)N)NC(=O)[C@H](Cc2c[nH]cn2)NC(=O)[C@H](CCC(=O)O)NC(=O)CNC(=O)[C@H](Cc2c[nH]c3ccccc23)NC(=O)[C@H](CC(=O)O)NC(=O)[C@H](CCC(N)=O)NC(=O)[C@H](Cc2c[nH]c3ccccc23)NC(=O)[C@H]([C@@H](C)CC)NC1=O [Compound 29] (Ac-EGSAICIWQDWGEHRCT-NH2; disulfide 6-16)	< 100
CC[C@H](C)[C@@H]1NC(=O)[C@@H](NC(=O)[C@@H](NC(=O)[C@H](CCC(=O)O)NC(C)=O)[C@@H](C)CC)CSSC[C@@H](C(=O)N[C@H](C(=O)N[C@@H](CCC(=O)O)C(=O)NCC(=O)N[C@@H](CCC(=O)O)C(N)=O)[C@@H](C)O)NC(=O)[C@H](CCCNC(=N)N)NC(=O)[C@H](Cc2c[nH]cn2)NC(=O)[C@H](CCC(=O)O)NC(=O)CNC(=O)[C@H](Cc2c[nH]c3ccccc23)NC(=O)[C@H](CC(=O)O)NC(=O)[C@H](CCC(N)=O)NC(=O)[C@H](Cc2c[nH]c3ccccc23)NC1=O [Compound 34] (Ac-EICIWQDWGEHRCTEGE-NH2; disulfide 3-13)	< 250
CC[C@H](C)[C@@H]1NC(=O)[C@@H](NC(=O)[C@@H](NC(=O)[C@H](CCC(=O)O)NC(=O)CNC(=O)[C@H](CCC(=O)O)NC(C)=O)[C@@H](C)CC)CSSC[C@@H](C(=O)N[C@@H](CCC(=O)O)C(=O)NCC(=O)N[C@@H](CCC(=O)O)C(N)=O)NC(=O)[C@H](CCCNC(=N)N)NC(=O)[C@H](Cc2c[nH]cn2)NC(=O)[C@H](CCC(=O)O)NC(=O)CNC(=O)[C@H](Cc2c[nH]c3ccccc23)NC(=O)[C@H](CC(=O)O)NC(=O)[C@H](CCC(N)=O)NC(=O)[C@H](Cc2c[nH]c3ccccc23)NC1=O [Compound 35] (Ac-EGEICIWQDWGEHRCEGE-NH2; disulfide 5-15)	< 500
CC[C@H](C)[C@@H]1NC(=O)[C@@H](NC(=O)[C@@H](NC(=O)[C@H](CCCCN)NC(=O)[C@H](CCC(=O)O)NC(=O)[C@H](CCCCN)NC(C)=O)[C@@H](C)CC)CSSC[C@@H](C(=O)N[C@H](C(=O)N[C@@H](CCC(=O)O)C(=O)N[C@@H](CCCCN)C(=O)N[C@@H](CCC(=O)O)C(N)=O)[C@@H](C)O)NC(=O)[C@H](CCCNC(=N)N)NC(=O)[C@H](Cc2c[nH]cn2)NC(=O)[C@H](CCC(=O)O)NC(=O)CNC(=O)[C@H](Cc2c[nH]c3ccccc23)NC(=O)[C@H](CC(=O)O)NC(=O)[C@H](CCC(N)=O)NC(=O)[C@H](Cc2c[nH]c3ccccc23)NC1=O [Compound 37] (Ac-KEKICIWQDWGEHRCTEKE-NH2; disulfide 5-15)	< 250
CC[C@H](C)[C@H](NC(=O)CNC(=O)[C@H](CCCCN)NC(=O)[C@H](CCC(=O)O)NC(C)=O)C(=O)N[C@H]1CSSC[C@@H](C(=O)N[C@H](C(=O)N[C@@H](CCC(=O)O)C(=O)N[C@@H](CCCCN)C(=O)N2CCC[C@H]2C(N)=O)[C@@H](C)O)NC(=O)[C@H](CCCNC(=N)N)NC(=O)[C@H](Cc2c[nH]cn2)NC(=O)[C@H](CCC(=O)O)NC(=O)CNC(=O)[C@H](Cc2c[nH]c3ccccc23)NC(=O)[C@H](CC(=O)O)NC(=O)[C@H](CCC(N)=O)NC(=O)[C@H](Cc2c[nH]c3ccccc23)NC(=O)[C@H]([C@@H](C)CC)NC1=O [Compound 38] (Ac-EKGICIWQDWGEHRCTEKP-NH2; disulfide 5-15)	< 250
CC[C@H](C)[C@H](NC(C)=O)C(=O)N[C@H]1CSSC[C@@H](C(=O)N[C@H](C(=O)N[C@@H](CCC(=O)O)C(=O)NCC(=O)N[C@@H](CCCCN)C(N)=O)[C@@H](C)O)NC(=O)[C@H](CCCNC(=N)N)NC(=O)[C@H](Cc2c[nH]cn2)NC(=O)[C@H](CCC(=O)O)NC(=O)CNC(=O)[C@H](Cc2c[nH]c3ccccc23)NC(=O)[C@H](CC(=O)O)NC(=O)[C@H](CCC(N)=O)NC(=O)[C@H](Cc2c[nH]c3ccccc23)NC(=O)[C@H]([C@@H](C)CC)NC1=O [Compound 39] (Ac-ICIWQDWGEHRCTEGK-NH2; disulfide 2-12)	< 100
CC[C@H](C)[C@H](NC(=O)[C@H](C)NC(=O)[C@H](CO)NC(C)=O)C(=O)N[C@H]1CSSC[C@@H](C(=O)N[C@H](C(=O)N[C@@H](CCC(=O)O)C(=O)NCC(N)=O)[C@@H](C)O)NC(=O)[C@H](CCCNC(=N)N)NC(=O)[C@H](Cc2c[nH]cn2)NC(=O)[C@H](CCC(=O)O)NC(=O)CNC(=O)[C@H](Cc2c[nH]c3ccccc23)NC(=O)[C@H](CC(=O)O)NC(=O)[C@H](CCC(N)=O)NC(=O)[C@H](Cc2c[nH]c3ccccc23)NC(=O)[C@H]([C@@H](C)CC)NC1=O [Compound 42] (Ac-SAICIWQDWGEHRCTEG-NH2; disulfide 4-14)	< 250
CC[C@H](C)[C@@H]1NC(=O)[C@@H](NC(=O)[C@H](Cc2ccccc2)NC(C)=O)CSSC[C@@H](C(=O)N[C@H](C(=O)NCC(=O)N[C@@H](C)C(=O)N[C@@H](CCC(=O)O)C(N)=O)[C@@H](C)O)NC(=O)[C@H](CCCNC(=N)N)NC(=O)[C@H](Cc2c[nH]cn2)NC(=O)[C@H](CCC(=O)O)NC(=O)CNC(=O)[C@H](Cc2c[nH]c3ccccc23)NC(=O)[C@H](CC(=O)O)NC(=O)[C@H](CCC(N)=O)NC(=O)[C@H](Cc2c[nH]c3ccccc23)NC1=O [Compound 43] (Ac-FCIWQDWGEHRCTGAE-NH2; disulfide 2-12)	< 100
CC[C@H](C)[C@H](NC(=O)[C@H](C)NC(=O)[C@H](CO)NC(=O)[C@H](CO)NC(=O)[C@H](CCC(=O)O)NC(C)=O)C(=O)N[C@H]1CSSC[C@@H](C(=O)N[C@H](C(N)=O)[C@@H](C)O)NC(=O)[C@H](CCCNC(=N)N)NC(=O)[C@H](Cc2c[nH]cn2)NC(=O)[C@H](C)NC(=O)CNC(=O)[C@H](Cc2c[nH]c3ccccc23)NC(=O)[C@H](CC(=O)O)NC(=O)[C@H](CCC(N)=O)NC(=O)[C@H](Cc2c[nH]c3ccccc23)NC(=O)[C@H]([C@@H](C)CC)NC1=O [Compound 46] (Ac-ESSAICIWQDWGAHRCT-NH2; disulfide 6-16)	< 100
CC[C@H](C)[C@H](NC(C)=O)C(=O)N[C@H]1CSSC[C@@H](C(=O)N[C@H](C(=O)NCC(=O)N[C@@H](C)C(=O)N[C@@H](CCC(=O)O)C(=O)N[C@@H](CO)C(N)=O)[C@@H](C)O)NC(=O)[C@H](CCCNC(=N)N)NC(=O)[C@H](Cc2c[nH]cn2)NC(=O)[C@H](C)NC(=O)CNC(=O)[C@H](Cc2c[nH]c3ccccc23)NC(=O)[C@H](CC(=O)O)NC(=O)[C@H](CCC(N)=O)NC(=O)[C@H](Cc2c[nH]c3ccccc23)NC(=O)[C@H]([C@@H](C)CC)NC1=O [Compound 47] (Ac-ICIWQDWGAHRCTGAES-NH2; disulfide 2-12)	< 100
CC[C@H](C)[C@@H]1NC(=O)[C@@H](NC(=O)[C@H](Cc2ccccc2)NC(=O)[C@H](C)NC(=O)[C@H](CO)NC(=O)CNC(=O)[C@H](CCC(=O)O)NC(C)=O)CSSC[C@@H](C(=O)N[C@@H](CCC(=O)O)C(=O)NCC(=O)N[C@@H](CCC(=O)O)C(N)=O)NC(=O)[C@H](CCCNC(=N)N)NC(=O)[C@H](Cc2c[nH]cn2)NC(=O)[C@H](CCC(=O)O)NC(=O)CNC(=O)[C@H](Cc2c[nH]c3ccccc23)NC(=O)[C@H](CC(=O)O)NC(=O)[C@H](CCC(N)=O)NC(=O)[C@H](Cc2cn(C)c3ccccc23)NC1=O [Compound 58] (Ac-EGSAFCI[Trp(1-Me)]QDWGEHRCEGE-NH2; disulfide 6-16)	< 100
CC[C@H](C)[C@@H]1NC(=O)[C@@H](NC(=O)[C@H](Cc2ccc(O)cc2)NC(=O)[C@H](C)NC(=O)[C@H](CO)NC(=O)CNC(=O)[C@H](CCC(=O)O)NC(C)=O)CSSC[C@@H](C(=O)N[C@H](C(=O)N[C@@H](CCC(=O)O)C(N)=O)[C@@H](C)O)NC(=O)[C@H](CCCNC(=N)N)NC(=O)[C@H](Cc2c[nH]cn2)NC(=O)[C@H](CCC(=O)O)NC(=O)CNC(=O)[C@H](Cc2c[nH]c3ccccc23)NC(=O)[C@H](CC(=O)O)NC(=O)[C@H](CCC(N)=O)NC(=O)[C@H](Cc2cn(C)c3ccccc23)NC1=O [Compound 59] (Ac-EGSAYCI[Trp(1-Me)]QDWGEHRCTE-NH2; disulfide 6-16)	< 100
CC[C@H](C)[C@@H]1NC(=O)[C@@H](NC(=O)[C@H](Cc2ccccc2)NC(C)=O)CSSC[C@@H](C(=O)N[C@H](C(=O)NCC(=O)N[C@@H](C)C(=O)N[C@@H](CCC(=O)O)C(=O)N[C@@H](CO)C(N)=O)[C@@H](C)O)NC(=O)[C@H](CCCNC(=N)N)NC(=O)[C@H](Cc2c[nH]cn2)NC(=O)[C@H](CCC(=O)O)NC(=O)CNC(=O)[C@H](Cc2c[nH]c3ccccc23)NC(=O)[C@H](CC(=O)O)NC(=O)[C@H](CCC(N)=O)NC(=O)[C@H](Cc2ccc3ccccc3c2)NC1=O [Compound 64] (Ac-FCI[2Nal]QDWGEHRCTGAES-NH2; disulfide 2-12)	< 100
CC[C@H](C)[C@@H]1NC(=O)[C@@H](NC(=O)[C@H](Cc2ccc(O)cc2)NC(C)=O)CSSC[C@@H](C(=O)N[C@H](C(=O)N[C@@H](CCC(=O)O)C(=O)N[C@@H](CO)C(=O)NCC(=O)N[C@@H](C)C(N)=O)[C@@H](C)O)NC(=O)[C@H](CCCNC(=N)N)NC(=O)[C@H](Cc2c[nH]cn2)NC(=O)[C@H](CCC(=O)O)NC(=O)CNC(=O)[C@H](Cc2c[nH]c3ccccc23)NC(=O)[C@H](CC(=O)O)NC(=O)[C@H](CCC(N)=O)NC(=O)[C@H](Cc2cn(C)c3ccccc23)NC1=O [Compound 69] (Ac-YCI[Trp(1-Me)]QDWGEHRCTESGA-NH2; disulfide 2-12)	< 100

From US20220306695A1, “COMPSTATIN ANALOGUES AND THEIR MEDICAL USES” (priority 2019, published 2022)
